Like-named read-outs stand apart in the source and are kept apart here.

The target in one experiment is T1, Muscarinic receptor 1 (Rattus norvegicus, UniProt P08482).
T1 construct: cortex removed from the brains of male rats weighing 150 to 200 g (Iffa Credo); from tissue; host or cells: rat cerebral cortex homogenate
T1 sequence (P08482 1-460): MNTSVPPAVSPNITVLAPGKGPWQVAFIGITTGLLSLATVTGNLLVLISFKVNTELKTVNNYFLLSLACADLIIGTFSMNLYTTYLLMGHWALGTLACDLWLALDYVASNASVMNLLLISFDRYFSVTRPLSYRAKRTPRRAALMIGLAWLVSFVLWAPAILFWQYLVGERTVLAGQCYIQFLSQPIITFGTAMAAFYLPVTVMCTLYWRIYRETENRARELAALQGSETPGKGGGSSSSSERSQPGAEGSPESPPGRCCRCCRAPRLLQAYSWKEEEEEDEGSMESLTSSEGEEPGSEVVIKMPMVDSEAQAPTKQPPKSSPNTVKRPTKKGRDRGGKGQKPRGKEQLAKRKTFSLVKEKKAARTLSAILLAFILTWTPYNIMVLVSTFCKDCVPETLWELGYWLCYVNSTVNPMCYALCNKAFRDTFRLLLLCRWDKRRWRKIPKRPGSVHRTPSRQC
As to the kind of experiment: Affinity for the muscarinic M1 receptor ([^3 H]pirenzepine binding, rat cortex). Conditions: 0.25 nM ^3 H pirenzepine, 60 min, 25° C., pH 7.4. The procedure: Its preparation is carried out from cortex removed from the brains of male rats weighing 150 to 200 g (Iffa Credo) ground up in a Polytron in a 10 mM Na/K pH 7.4 buffer. After incubation (0.5 ml aliquots of homogenate) for 60 minutes at 25° C. in the presence of 0.25 nM of ^3 H pirenzepine either on its own, or with the product to be tested, or with an excess of pirenzepine at 10^-5 M (in order to determine the non-specific fixed radioactivity), the incubates are cooled down and filtered.
The filtration is carried out on Whatman GF/C filters prewashed in a 0.05% polyethylene imine solution. The filters are rinsed with 3×5 ml of 10 mM Na/K pH 7.4 phosphate buffer, then measurements are carried out by liquid scintillation.
(§1) The results are expressed in IC50 (concentration necessary to inhibit 50% of the fixed specific radio-activity).

Another experiment concerns the target Muscarinic receptor 2. In words: Affinity for the muscarinic M2 receptor ([^3 H]quinuclidinyl benzylate binding, rat brain). The following applies: 0.3 nM ^3 H quinuclidinyl benzylate, 60 min, 25° C., pH 7.5. Here is the method: The preparation is carried out from the brains of male rats weighing 150 to 200 g (Iffa Credo).
The brains are ground up (Teflon-glass) in a 0.32 M sucrose solution. The homogenate is centrifuged for 10 minutes at 1000 g (0-4° C.).
The supernatant obtained is collected and centrifuged again at 30000 g for 15 minutes (0-4° C.).
The deposit is put in suspensions in a 50 mM Tris pH 7.5 buffer and the new homogenate is centrifuged again at 30000 g for 15 minutes (0-4° C.).
After elimination of the supernatants, the deposits can be used immediately or kept for up to one month at -30° C.
For one experiment the deposits are firstly defrosted, if necessary, at ambient temperature and put in suspension using a Dounce grinder in a 50 mM Tris pH 7.5 buffer. 2 ml aliquots are incubated for 60 minutes at 25° C. in the presence of 0.3 nM of
^3 H quinuclidinyl benzylate either on its own, or with the product to be tested, or with benzatropine at 10^-5 M in order to determine the non-specific fixed radioactivity.
At the end of the incubation, the tubes of incubate are cooled down to 4° C. and the incubate is filtered rapidly on Whatman GF/C filters. The filters are rinsed with 3×5 ml of 50 mM Tris pH 7.5 buffer then measurements are carried out by liquid scintillation (Henry I Yamamura, Solomon H. Synder, Proc. Nat. Acad Sc. (1974) 71, No. 5, 1725-1729).
as §1

Experiment [1] has as its system acetylcholine-induced contractions of isolated ileum. In words: Antagonism of acetylcholine-induced contractions of isolated guinea-pig ileum. The format is cell-based. Conditions: read-out: Antagonistic to ACh, IC50. Here is the method: (§2) The interaction of the compounds with different receptors was evaluated on the isolated ileum of a guinea-pig according to the following method.
(§3) 2.5-3 cm segments of the guinea-pigs, ileum were washed and immediately suspended in a bath containing 10 ml of a Tyrode solution at 37° C. and aerated with a mixture of oxygen (95%) and carbon dioxide (5%). After a stabilization period of at least 30 minutes, the contractions are recorded, maintaining the preparation under constant pressure of 1 g, using a sensor connected to a polygraph. […] The following dose was only added to the bath after the preparation returned to its base line. Arecoline was used as reference product. The antagonistic action was evaluated on contractions induced by acetylcholine (1×10^-6 M), histamine (1×10^-5 M) and barium chloride (2×10^-5 M). […] The contact time before adding the agonist was one minute.
(§4) For each compound the dose-response curves are obtained with 4 to 6 different concentrations and 3 to 5 independent tests. The agonistic activity is expressed by pD2 (negative logarithm of the dose which produces 50% of the maximum effect). The antagonistic activity is expressed by IC50 (concentration inhibiting 50% of the maximum response).

For experiment [2], the system named is histamine-induced contractions of isolated ileum. In words: Antagonism of histamine-induced contractions of isolated guinea-pig ileum. The following applies: histamine 1×10^-5 M, contact time one minute, 37° C., read-out: Antagonistic to Histam., IC50. The format is cell-based. Here is the method: as §2, §3, §4
The subject of experiment [3] is barium chloride-induced contractions of isolated ileum. As to the kind of experiment: Antagonism of barium chloride-induced contractions of isolated guinea-pig ileum. The class given is cell-based. Conditions: read-out: Antagonistic to BaCl2, IC50. Here is the method:
as §2, §3, §4

The next experiment relates to isolated ileum. As to the kind of experiment: Agonistic action on isolated guinea-pig ileum. The following applies: negative logarithm of the dose producing 50% of the maximum effect; for EC50: Cavia porcellus, read-out: Agonistic action pD2 (converted). The class given is cell-based. Here is the method: as §2, §3, §4
For experiment [4], the system named is cholinomimetic effects induced by carbachol. As to the kind of experiment: In vivo anti-cholinergic action: inhibition of cholinomimetic effects induced by carbachol in mice. Also on record: species or system CD1 male mice. The following applies: for ED50 / ED (1 degree C): Mus musculus, ip, 0.5 h; for ED (1 degree C): rectal temperature, read-out: Dose changing body temperature (hypothermic effect of carbachol) by 1° C. Here is the method: The anti-cholinergic activity of the compounds was determined by evaluating the capacity to inhibit the cholino-mimetic effects induced by carbachol. Atropine sulphate was used as reference product.
CD1 male mice weighing 25 to 30 g are used. They are divided into groups of 6 animals and treated by intraperi-toneal route at scalar doses of the products or 0.25% Methocel for the controls. 12 animals are used for each dose. 30 minutes after the administration of the compounds, 1 mg/kg of carbachol, dissolved in physiological serum, was injected into the mice by sub-cutaneous route.
Each animal was examined 30 minutes after the injection of carbachol to evaluate the presence of diarrhoea, salivation and weeping; the body temperature was also measured using a thermocouple inserted 1.5 cm inside the rectum.
For each compound, we have determined the dose which can inhibit, in 50% of the animals, the appearance of cholinomimetic symptoms induced by carbachol and […] the hypothermic effect induced by the cholinergic agent by 1° C.

The mark [5] stands for this setting: Cavia porcellus, acetylcholine 1×10^-6 M, contact time one minute, 37° C.
The mark [6] stands for this setting: Cavia porcellus, barium chloride 2×10^-5 M, contact time one minute, 37° C.
[7] abbreviates: i.p., 30 min before carbachol 1 mg/kg s.c., read-out: Dose inhibiting diarrhoea in 50% of the animals.
[8] abbreviates: i.p., 30 min before carbachol 1 mg/kg s.c., read-out: Dose inhibiting salivation in 50% of the animals.
Setting [9] is: i.p., 30 min before carbachol 1 mg/kg s.c., read-out: Dose inhibiting weeping in 50% of the animals.
Where [10] appears, read: i.p., 30 min before carbachol 1 mg/kg s.c.

The term IC50 denotes the concentration that inhibits the measured activity by half. For the molecule `O=C1CC(O)CN1S(=O)(=O)c1ccc(N2CCCCC2)cc1` (stereo not shown) [Example 4, 4-hydroxy-1-[[4-(1-piperidinyl)-phenyl]-sulphonyl]-2-pyrrolidinone], the IC50 on Muscarinic receptor 1 was 560 nM; on Muscarinic receptor 2 it was 10000 nM; in experiment [1] (setting [5]), 1200 nM; in experiment [2] (Cavia porcellus), above 10000 nM; in experiment [3] (setting [6]) it was 2500 nM. In addition, the EC50 in the experiment on isolated ileum is above 100000 nM.

For the molecule “1-[[4-(dimethylamino)-phenyl]-sulphonyl]-4-(2,2-dimethyl-1-oxo-propoxy)-2-pyrrolidinone [Example 2]”, the IC50 is 720 nM at Muscarinic receptor 1; above 5000 nM on Muscarinic receptor 2; 5500 nM in experiment [1] (acetylcholine 1×10^-6 M, contact time one minute, 37° C.); above 10000 nM in experiment [2]; above 10000 nM in experiment [3] (barium chloride 2×10^-5 M, contact time one minute, 37° C.). For the same molecule, the “Agonistic action pD2” value with isolated ileum is given as below 4.

For the molecule `COC(=O)C1=CCCN(C)C1` [Arecoline, reference compound], the EC50 with isolated ileum is 209 nM.

In the case of `O=S(=O)(c1ccc(N2CCCCCC2)cc1)N1CC(O)CC1=S` (stereo not shown) [Example 7, 1-[[4-(hexahydro-1H-azepin-1-yl)-phenyl]-sulphonyl]-4-hydroxy pyrrolidine thione], the IC50 was 83 nM at Muscarinic receptor 1, 510 nM in experiment [1] (setting [5]), above 10000 nM in experiment [2] (Cavia porcellus) and 3600 nM in experiment [3] (setting [6]). In addition, in the experiment on isolated ileum, the EC50 was above 100000 nM. Besides, the figures for the ED50 in experiment [4] (setting [7]), in experiment [4] (setting [8]) and in experiment [4] (setting [9]) were 5 mg/kg, 50 mg/kg and above 50 mg/kg, respectively. The ED (1 degree C) in experiment [4] (setting [10]) worked out at 20 mg/kg.

As to `COc1ccc(Cc2nccc3cc(OC)c(OC)cc23)cc1OC` [Papaverine, papaverine, reference compound], the IC50 in experiment [3] (Cavia porcellus) turned out to be 45000 nM.

Consider `C[N+](C)(C)CCOC(N)=O` [Carbochol, carbachol, reference compound], for which, in experiment [4] (1 mg/kg s.c., control mice), the “decrease of the rectal temperature” value is “about 2.5 °C”; the “induction of diarrhoea, salivation and weeping” value is “induced diarrhoea, salivation and weeping in all the control mice”.

For the molecule `O=C1CC(O)CN1S(=O)(=O)c1ccc(N2CCCCCC2)cc1` (stereo not shown) [Example 6, 1-[[4-(hexahydro-1H-azepin-1-yl)-phenyl]-sulphonyl]-4-hydroxy-pyrrolidinon], the IC50 was 62 nM on Muscarinic receptor 1, 110 nM in experiment [1] (setting [5]), above 10000 nM in experiment [2] (Cavia porcellus) and 2500 nM in experiment [3] (setting [6]). Further, in the experiment with isolated ileum, the EC50 is above 100000 nM. Further, the ED50 in experiment [4] (setting [7]) is 12 mg/kg; in experiment [4] (setting [8]), above 50 mg/kg; in experiment [4] (setting [9]), above 50 mg/kg. For the same molecule, the ED (1 degree C) in experiment [4] (setting [10]) was determined as 50 mg/kg.

Regarding `CCN(CC)c1ccc(S(=O)(=O)N2CC(O)CC2=O)cc1` (stereo not shown) [Example 1, 1-[[4-(diethylamino)-phenyl]sulphonyl]-4-hydroxy-2-pyrrolidinone], the IC50 on Muscarinic receptor 1 is 370 nM; at Muscarinic receptor 2, above 5000 nM; in experiment [1] (setting [5]) it was 860 nM; in experiment [2] (Cavia porcellus), above 10000 nM; in experiment [3] (setting [6]) it was above 10000 nM. For the same molecule, the EC50 in the experiment on isolated ileum is above 100000 nM.

As for `CN1[C@@H]2CC[C@H]1C[C@@H](OC(=O)C(CO)c1ccccc1)C2` (stereo partly shown) [Atropine, reference compound], the IC50 in experiment [1] (Cavia porcellus) came to 9.5 nM. In addition, the ED50 in experiment [4] (read-out: Dose inhibiting diarrhoea in 50% of the animals) came out at 0.04 mg/kg; in experiment [4] (read-out: Dose inhibiting salivation in 50% of the animals), 0.06 mg/kg; in experiment [4] (read-out: Dose inhibiting weeping in 50% of the animals), 0.05 mg/kg.

On to `O=S(=O)(c1ccc(N2CCCCC2)cc1)N1CC(O)CC1=S` (stereo not shown) [Example 5], for which the IC50 at Muscarinic receptor 1 was 170 nM; on Muscarinic receptor 2, above 5000 nM; in experiment [1] (setting [5]) it was 1400 nM; in experiment [2] (Cavia porcellus) it was above 10000 nM; in experiment [3] (setting [6]), above 10000 nM. The EC50 with isolated ileum was above 100000 nM. Also, the figures for the ED50 in experiment [4] (setting [7]), in experiment [4] (setting [8]) and in experiment [4] (setting [9]) were 6 mg/kg, 50 mg/kg and above 50 mg/kg, respectively. In addition, in experiment [4] (setting [10]), the ED (1 degree C) stood at 25 mg/kg. In addition, the “selectivity of in vivo anticholinergic action (in words)” value in experiment [4] (contrary to atropine) is “selective anticholingeric action at the level of the intestinal musculature”.

As for `CCN(CC)c1ccc(S(=O)(=O)N2CC(O)CC2=S)cc1` (stereo not shown) [Example 3, 1-[[4-(diethylamino)-phenyl]-sulphonyl]-4-hydroxy-2-pyrrolidine thione], the IC50 on Muscarinic receptor 1 is 370 nM; at Muscarinic receptor 2, above 5000 nM; in experiment [1] (setting [5]) it was 3000 nM; in experiment [2] (Cavia porcellus), above 10000 nM; in experiment [3] (setting [6]), above 10000 nM. Besides, in the experiment with isolated ileum, the EC50 is above 100000 nM.

Values taken from patent US5204341A, “1-arylsulphonyl-2-pyrrolidone derivatives, their preparation process and the new intermediates obtained, their use as medicaments and the pharmaceutical compositions containing them” (priority 1990, dated 1993).
